Like-named read-outs stand apart in the source and are kept apart here.
How the values were obtained:
[1] = tested on: HepG2 cells; assay: HepG2 cytotoxicity assay; conditions: for Unified cytotox: HepG2 values of the three screens unified; for IC50: read-out: HepG2 cytotoxicity assay IC50, dose response confirmation
How it was run: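 Percent inhibition derived from fluorescent viability readout, normalised to DMSO (negative) and 50 μM doxorubicin (positive). Compound incubation lasted 48 h at 37°C, 5% CO2, with 2,500 HepG2 cells/well in MEM plus 10% FBS and 1% NEAA.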

[2] = tested on: P. falciparum late stage (stages IV-V) gametocytes; assay: P. falciparum late stage gametocyte ATP depletion assay (Pf GC-ATP); conditions: 1: YES; 0: NO
[3] = tested on: P. berghei ookinete development; conditions: for % inhibition, Replicate A / % inhibition, Replicate B: primary screen at 1 μM
[4] = tested on: 3D7-strain P. falciparum asexual parasites; assay: P. falciparum asexual growth inhibition assay (Pf GIA); assay type: cell-based, Plasmodium falciparum; conditions: dose response confirmation; read-out: Pf asexual growth inhibition assays IC50
How it was run: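 Read-out was lactate dehydrogenase activity measured by absorbance at 650 nm after freezing and thawing, against 50 μM chloroquine and DMSO controls. Before that, asexual 3D7 cultures (0.25% parasitemia, 2% hematocrit) had 72 h dose-response compound exposure at 37°C in 5% CO2/5% O2/90% N2; three independent replicates averaged.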

[5] = tested on: P. falciparum late stage (stages IV-V) gametocytes; set-up: method as in Almela et al 2016; conditions: ref Almela et al 2016; read-out: Pf GCT ATP IC50; cited from earlier work
[6] = tested on: HepG2 cells; conditions: HepG2; ref Almela et al 2016; cited from earlier work
[7] = read-out: Pb ODA IC50, this manuscript
[8] = read-out: Pb Ookinete development assay IC50, dose response confirmation

SMILES	Unified cytotox [1]	IC50 [1]	Is compound selective in assay? Pf GC-ATP active? [2]	Is compound selective in assay? Pb ODA active? ([3]; 1: YES, 0: NO)	% inhibition, Replicate A [3]	% inhibition, Replicate B [3]	IC50 [3, 7]	IC50 [3, 8]	IC50 [4]	IC50 [5]	HepG2 cytoxicity (Pf GCT ATP screen) [6]	HepG2 cytoxicity (Pb ODA, this manuscript) [1]	Is compound selective in assay? Pb ODA active? [3]
Cn1nc(C(F)(F)F)c(-c2ccc(Br)cc2)c1NC(=O)Cc1ccccc1F [TCMDC-123792]	100.00 µM	100000 nM	1 (1: YES)	1 (1: YES)	45.62%	73.81%	2120 nM	2120 nM	206 nM	1790 nM	>25 µM	–	–
CN1c2ccc([N+](=O)[O-])cc2C(C)(C)C12C=Cc1cc(Br)cc([N+](=O)[O-])c1O2 (stereo not drawn) [TCMDC-124178]	29.17 µM	29200 nM	1 (1: YES)	1 (1: YES)	65.23%	65.28%	1600 nM	1600 nM	197 nM	1090 nM	>25 µM	29.17 µM	–
Cl.Cl.c1ccc2c(NCCCCCCNc3c4ccccc4nc4ccccc34)c3ccccc3nc2c1 [TCMDC-124285]	7.56 µM	8130 nM	1 (1: YES)	0 (0: NO)	78.92%	53.92%	1500 nM	1500 nM	532 nM	250 nM	7 µM	8.13 µM	–
Cc1ccc(C)c(CC(=O)N2CCC(n3c(C)nc4ccc(F)cc43)CC2)c1 [TCMDC-124790]	57.54 µM	57500 nM	1 (1: YES)	1 (1: YES)	55.29%	63.09%	3660 nM	3660 nM	252 nM	920 nM	>25 µM	57.54 µM	–
COc1cccc(CC(=O)N2CCC(n3c(C)nc4ccc(C)cc43)CC2)c1 [TCMDC-124791]	100.00 µM	100000 nM	1 (1: YES)	1 (1: YES)	79.91%	77.59%	1120 nM	1120 nM	98 nM	470 nM	>25 µM	–	–
Cc1[nH]c2ccccc2c1C(=O)C(C)Sc1n[nH]c(-c2ccccc2Br)n1 (stereo not drawn) [TCMDC-125114]	74.66 µM	100000 nM	1 (1: YES)	1 (1: YES)	114.44%	73.49%	170 nM	174 nM	57 nM	670 nM	49.31 µM	–	–
COc1cccc(NC(=O)[C@H](C(C)C)n2c(=O)[nH]c3ccccc3c2=O)c1 [TCMDC-125133]	100.00 µM	100000 nM	1 (1: YES)	1 (1: YES)	62.00%	73.38%	–	1530 nM	170 nM	540 nM	>50 µM	–	–
CCOc1ccc(-c2nonc2NC(=O)c2cccc(Cl)c2)cc1OCC [TCMDC-125200]	19.50 µM	19500 nM	1 (1: YES)	0 (0: NO)	62.08%	54.18%	6230 nM	6230 nM	156 nM	840 nM	>25 µM	19.50 µM	–
COc1ccc(C[C@H]2NC[C@H](O)[C@H]2OC(C)=O)cc1 [TCMDC-125504]	1.24 µM	2290 nM	0 (0: NO)	–	102.72%	96.40%	210 nM	215 nM	54 nM	170 nM	0.19 µM	2.29 µM	0 (key: 1: YES; 0: NO)
COCCn1c(-c2cccc(Cl)c2)nn(-c2ccc([N+](=O)[O-])cc2C#N)c1=S [TCMDC-134719]	100.00 µM	100000 nM	1 (1: YES)	1 (1: YES)	64.09%	78.69%	1840 nM	1840 nM	403 nM	2780 nM	>25 µM	–	–
CCOCn1c(-c2ccccc2)cc2c3c(N)nc(N)nc3ccc21 [TCMDC-137979]	5.22 µM	4790 nM	0 (0: NO)	0 (0: NO)	30.79%	81.58%	7500 nM	7500 nM	180 nM	1300 nM	5.65 µM	4.79 µM	–
C=CC(C)C1OC(=O)c2cc(OC)cc(OC)c21 (stereo not drawn) [TCMDC-138676]	1.01 µM	1220 nM	0 (0: NO)	0 (0: NO)	44.05%	73.82%	490 nM	489 nM	259 nM	400 nM	0.8 µM	1.22 µM	–
Cc1cc(F)ccc1-c1nc(NCC(O)CNCCc2ccccc2)nc2c1ccc(=O)n2-c1c(F)cccc1F.O=C(O)C(F)(F)F (stereo not drawn) [TCMDC-141784]	11.63 µM	14800 nM	1 (1: YES)	0 (0: NO)	54.07%	33.72%	3850 nM	3850 nM	451 nM	230 nM	8.47 µM	14.79 µM	–

— publication PMC6753678, “Fueling Open Innovation for Malaria Transmission-Blocking Drugs: Hundreds of Molecules Targeting Early Parasite Mosquito Stages” (Frontiers in Microbiology, 2019)
